For assay [1], the system named is Transgenic mice producing human HbS. Particulars: extreme hypoxia (5% oxygen), vs non-treated mice; cited from earlier work.
A further assay addresses T1, HbS (Homo sapiens, UniProt P68871+P69905, E7V).
T1 construct: Oxygen Equilibrium Curves (OEC) of whole blood before and after treatment; endogenous in cells; host or cells: whole blood (red blood cells) of homozygous sickle cell patients
In words: Whole blood assay, oxygen equilibrium curves of whole blood from sickle cell patients. The format is cell-based. The following applies: hematocrit 20%, compound at 1000 μM. Here is the method: Oxygen Equilibrium Curves (OEC) of whole blood before and after treatment with different concentrations of substituted benzaldehyde compounds were performed as follows using a HEMOX analyzer (TCS Scientific, New Hope, Pa.). Blood samples from homozygous sickle cell patients were obtained though the Hemoglobinopathy Center at Children's Hospital Oakland Research Institute (CHORI) with Institutional Review Board approval. The hematocrit was adjusted to 20% using autologous plasma and the blood samples were incubated for 1 hour at 37° C. in absence or presence of compounds. 100 μl of these samples were added to 5 mL of Hemox buffer (30 mM TES, 130 mM NaCl, 5 mM KCl, pH=7.4) at 37° C. and then transferred to the Hemox sample chamber. The samples were saturated with oxygen by flushing with compressed air for 10 minutes. The samples were then flushed with pure nitrogen and the respective absorbances of oxy- and deoxy-Hb are recorded as a function of the solution pO2. The oxygen equilibrium data were then fitted to the Hill Model to obtain values for p50. The deoxygenation curves for both whole blood alone (control) and whole blood in the presence of the compound were collected with the TCS software.
Table 5 below lists the delta p50% values where + indicates a delta p50% of between 0 and 29, ++ indicates a delta p50% of between 30 and 50, and +++ indicates a delta p50% of 50 or greater. The compounds in Table 2 were tested at 1000 μM.

Another assay addresses T2, HbS/A (Homo sapiens, UniProt P68871+P69905, E7V).
T2 construct: A mixture of HbS/A was purified from blood; from tissue; host or cells: blood of homozygous sickle cell patients
The assay is described as follows: Relaxed-to-tense transition assay (R/T assay). The format is biochemical. Particulars: 3 μM HbS/A. Here is the method: A relaxed-to-tense transition assay (“R/T assay”) was used to determine the ability of substituted benzaldehyde compounds to maintain the high-oxygen affinity relaxed (R) state of hemoglobin under deoxygenated conditions. This ability can be expressed as a “delta R” value (i.e., the change in the time-period of the R state after hemoglobin is treated with a compound, as compared to the period without treatment with the compound). Delta R is the % R to remaining after the compounds treatment compared with no treatment (e.g. if R % without treatment is 8% while with treatment with a target compound is 48% R at 30 μM, then % R is 40% for that compound.
A mixture of HbS/A was purified from blood obtained from homozygous sickle cell patients though the Hemoglobinopathy Center at Children's Hospital Oakland Research Institute (CHORI) with Institutional Review Board approval. HbS/A (at a final concentration of 3 μM) was incubated for 1 hr at 37° C. in presence or absence of compounds in […] potassium phosphate buffer, pH=7.4 and 30 μM 2, 3 diphosphoglycerate (DPG) in 96 well plates in a final volume of 160 μl. Compounds were added at different concentrations (3 μM to 100 μM final concentrations). Plates were covered with a Mylar film. After incubation was completed the Mylar cover was removed and the plates were placed in a Spectrostar Nano plate reader previously heated at 37° C. Five minutes later, N2 (flow rate=20 L/min) was flowed through the spectrophotometer. Spectroscopic measurements (300 nm to 700 nm) were taken every 5 min for 2 hours. Data analysis was performed by using linear regression from the data retrieved for all wavelengths.
Table 4 below lists the delta R values where + indicates a delta R of between 0 and 30, ++ indicates a delta R of between 30 and 50, and +++ indicates a delta R of 50 or greater. Unless noted otherwise, the compounds in Table 2 were tested at 9 μM.

A further assay has as its target T3, purified HBS (Homo sapiens, UniProt P68871+P69905, E7V).
T3 construct: HbS is purified by the CRO VIRUSYS, from blood obtained from homozygous sickle cell patients; tissue VIRUSYS (CRO that did the purification); host or cells: blood of homozygous sickle cell patients
The assay is described as follows: HbS polymerization assay (delay time). The format is biochemical. Particulars: 50 μM purified HBS, 1.8 M potassium phosphate pH 7.4. As to the method:
Polymerization assays are carried out in vitro using purified HBS exchanged into 1.8 M potassium phosphate buffer at pH 7.4. Using a slightly modified protocol (Antonini and Brunori, 1971), HbS is purified by the CRO VIRUSYS, from blood obtained from homozygous sickle cell patients through the Hemoglobinopathy Center at Children's Hospital Oakland Research Institute (CHORI) with Institutional Review Board approval. Compounds are prepared in 100% DMSO and a desired amount is added to 50 μM of purified HBS at a final DMSO concentration of 0.3%. Final potassium phosphate concentration is adjusted to 1.8 M using a combination of 2.5 M potassium phosphate stock solution and water at pH 7.4. The reaction mixture is incubated for an hour at 37° C. and then transferred into a 24-well plate for deoxygenation in a glove box containing 99.5% nitrogen and 0.5% oxygen. The 24-well plate is not covered and incubated at 4° C. on a plate cooler inside the glove box for one and a half hours. Fifty μL of the reaction mixture is transferred into a 96-well plate and the absorbance at 700 nm is measured every minute for one hour at 37° C. in a plate reader located inside the glove box. A plot of the absorbance against time is fitted using a Boltzman sigmoidal fit and the delay time (from zero to time at half Vmax) is measured. To compare and rank compounds, delay times are expressed as percent delay (% DT), which is defined as the difference in delay times for HBS/compound and HBS alone multiplied by 100 and divided by the delay time for HBS alone.
Compounds listed below have been tested in the polymerization assay. Activity ranges are defined by the number of dagger (†) symbols indicated. † denotes activity ≤40% but ≤80%; †† denotes activity >80% but ≤120%; ††† denotes activity >120% but ≤140%; †††† denotes activity >160%.

We go through five molecules from patent publication US10034879B2, “Substituted benzaldehyde compounds and methods for their use in increasing tissue oxygenation” (Global Blood Therapeutics, Inc., priority 2011, dated 2018).

`O=Cc1ccc(CO)o1` [Compound 5HMF, 5-hydroxymethyl-2-furfuraldehyde]: in assay [1], the “amounts of hypoxia-induced sickled red blood cells” value is on record as “reduced” and the survival times entry was “significantly improved”.
As to `O=Cc1c(O)cccc1OCc1ccc(C(=O)O)cc1` [Compound 42, 4-((2-formyl-3-hydroxyphenoxy)methyl)benzoic acid], at HbS, the “delta p50%” value is “+ (+ indicates a delta p50% of between 0 and 29)”. The “delta R (%)” value at HbS/A (compound at 30 μm) is reported as “+++ (30 μm) (+++ indicates a delta R of 50 or greater)”. For the same molecule, the “% delta Delay” value on purified HBS is reported as “†† (†† denotes activity >80% but ≤120%)”.
As to `O=Cc1c(O)cccc1OCc1cccc(-c2nn[nH]n2)c1` [Compound 44, 2-((3-(2H-tetrazol-5-yl)benzyl)oxy)-6-hydroxybenzaldehyde], on HbS, the “delta p50%” value was “+ (+ indicates a delta p50% of between 0 and 29)”. Besides, on HbS/A (compound at 9 μM), the “delta R (%)” value is reported as “+++ (+++ indicates a delta R of 50 or greater)”.
As for `O=Cc1c(O)cccc1OCc1ccc(-c2nn[nH]n2)cc1` [Compound 45, 2-((4-(2H-tetrazol-5-yl)benzyl)oxy)-6-hydroxybenzaldehyde], at HbS, the “delta p50%” value was “+ (+ indicates a delta p50% of between 0 and 29)”. Besides, the “delta R (%)” value on HbS/A (compound at 9 μM) was “+++ (+++ indicates a delta R of 50 or greater)”. The “% delta Delay” value at purified HBS was “†† (†† denotes activity >80% but ≤120%)”.
With `O=Cc1ccccc1OCc1ccc(C(=O)O)cc1` [Compound 47, 4-((2-formylphenoxy)methyl)benzoic acid], the “% delta Delay” value on purified HBS is reported as “†† (†† denotes activity >80% but ≤120%)”.
